# Key:
# Assay type in all cases: in vivo, female NOD/Shi Jic mice
# [1] = tested on: NOD mice (spontaneous type I diabetes model); test: Evaluation in NOD mice: weekly urinalysis for urinary sugar (diabetes onset); details: 1 mg/kg mixed in feed over 19 weeks from 6 weeks of age, N = 6, positive = urinary glucose 2,000 mg/dl or higher, control group 2/6
# Text: (§1) NOD mice have been used as spontaneous type I diabetes and Sjoegren's syndrome model animals. Lymphocyte infiltration lesions similar to those of type I diabetes are developed in the pancreatic islets of Langerhans, and lymphocyte infiltration lesions similar to those of Sjoegren's syndrome are developed in the salivary glands (Eur. J. Immunol., 28, pp. 3336-3345, 1998). To female NOD/Shi Jic mice at 6 weeks of age, tamibarotene (Am80, 4-[(5,6,7,8-tetrahydro-5,5,8,8-tetramethyl-2-naphthalenyl)carbamoyl]benzoic acid) was administered over 19 weeks by mixing it in feed. During the test period, urinalysis was conducted once every week to measure urinary sugar. Test paper for urinalyses, Pre Test 3aII (Wako Pure Chemical Industries), was immersed in mouse fresh urine, and when a determined glucose value was 2,000 mg/dl or higher, the mouse was judged to be with diabetes. When the mice gave a sign of physical agony, they were euthanized. After the end of the administration period, pancreases and submaxillary glands were extracted from the euthanized mice, and fixed by immersion in a neutrally buffered 10% formalin fixation solution. From the fixed pancreases and submaxillary glands, hematoxin-eosin stained histopathological specimens were prepared, and the influence of tamibarotene on the pancreases and salivary glands was histopathologically evaluated. […]
# [2] = tested on: pancreatic islets of Langerhans of NOD mice; test: Evaluation in NOD mice: histopathological evaluation of pancreases (islets of Langerhans); details: 1 mg/kg mixed in feed over 19 weeks, N = 6; for Pancreatic La islet lymphocyte infiltration score (average): score 0 no lesion, 1 slight, 2 moderate, 3 severe, control group 2.7
# Text: NOD mice have been used as spontaneous type I diabetes and Sjoegren's syndrome model animals. Lymphocyte infiltration lesions similar to those of type I diabetes are developed in the pancreatic islets of Langerhans, and lymphocyte infiltration lesions similar to those of Sjoegren's syndrome are developed in the salivary glands (Eur. J. Immunol., 28, pp. 3336-3345, 1998). To female NOD/Shi Jic mice at 6 weeks of age, tamibarotene (Am80, 4-[(5,6,7,8-tetrahydro-5,5,8,8-tetramethyl-2-naphthalenyl)carbamoyl]benzoic acid) was administered over 19 weeks by mixing it in feed. During the test period, urinalysis was conducted once every week to measure urinary sugar. Test paper for urinalyses, Pre Test 3aII (Wako Pure Chemical Industries), was immersed in mouse fresh urine, and when a determined glucose value was 2,000 mg/dl or higher, the mouse was judged to be with diabetes. When the mice gave a sign of physical agony, they were euthanized. After the end of the administration period, pancreases and submaxillary glands were extracted from the euthanized mice, and fixed by immersion in a neutrally buffered 10% formalin fixation solution. From the fixed pancreases and submaxillary glands, hematoxin-eosin stained histopathological specimens were prepared, and the influence of tamibarotene on the pancreases and salivary glands was histopathologically evaluated. For each of the tamibarotene-administered group and the control group, 6 mice were used.
# The results are indicated by numbers of urinary sugar positive mice, scores for destruction of the pancreatic islets of Langerhans (henceforth occasionally abbreviated as “Pancreatic La islet”) associated with lymphocyte infiltration (Pancreatic La islet lymphocyte infiltration score), scores for decrease in number of the pancreatic islets of Langerhans (Pancreatic La islet number score), and submaxillary gland lymphocyte infiltration scores. The scores were determined according to the following criteria.
# 0: No lesion was observed
# [3] = tested on: submaxillary glands of NOD mice; test: Evaluation in NOD mice: histopathological evaluation of submaxillary glands (Sjoegren's syndrome model); details: 1 mg/kg mixed in feed over 19 weeks, N = 6, score 0 no lesion to 3 severe, control group 1.7
# Text: as §1
structure (smiles),measurement,setting,value
"CC1(C)CCC(C)(C)c2cc(NC(=O)c3ccc(C(=O)O)cc3)ccc21 [Tamibarotene, 4-[(5,6,7,8-tetrahydro-5,5,8,8-tetramethyl-2-naphthalenyl)carbamoyl]benzoic acid]",Urinary sugar positive mice,[1],0/6
same,Urinary sugar positive mice,[1]; listed as tamibarotene,no urinary sugar positive mouse was observed
same,Pancreatic La islet lymphocyte infiltration score (average),[2],1.7
same,Pancreatic La islet lymphocyte infiltration score (average),[2]; listed as tamibarotene,apparently reduced
same,Pancreatic La islet number score (average),"[2]; score for decrease in number of islets, score 0 no lesion to 3 severe, control group 1",0
same,Submaxillary gland lymphocyte infiltration score (average),[3],0.8
same,Submaxillary gland lymphocyte infiltration score (average),[3]; listed as tamibarotene,reduced

# From patent US20080139842A1, “Medicament for preventive and/or therapeutic treatment of diseases with secretory disorder” (R&R INC., priority 2006, published 2008)
